Data on 11 compounds can be found in PMC3968527, “Dynamic mass redistribution analysis of endogenous β-adrenergic receptor signaling in neonatal rat cardiac fibroblasts” (Pharmacology Research & Perspectives, 2014).

Where two headings read alike, the source gives them in different places. Where only a bound is given, the exact number is not on record here.

Usually EC50 stands for the concentration needed to bring the measured effect to its halfway point. For orientation: IC50 means the concentration needed to halve the response being measured.

For assay [1], the system named is endogenous βAR in primary neonatal rat cardiac fibroblasts (NRCF). Kind of assay: Dynamic mass redistribution (DMR) response to βAR ligands in NRCF. The assay is classed as cell-based. The following applies: for EC50: read-out: EC50 (DMR).
In the next assay the test system is cAMP generation in NRCF. Kind of assay: FRET detection of cAMP generation using ICUE3 in NRCF. The following applies: for effect on ISO-induced FRET (cAMP generation): antagonist 10 μmol/L, ISO 1 μmol/L. Type of assay: cell-based, rat. The protocol: ICUE3 adenovirus (Ad-ICUE3) was generously supplied by Dr. Yang Xiang (UC Davis). NRCF were seeded in the fibronectin-coated 10 mm glass-bottom insert of 35 mm dishes (MatTek Corporation, Ashland, MA) at 5 × 10^4 cells/10 mm insert and infected with Ad-ICUE3 at a multiplicity of infection (MOI) of 40 for 24 h with or without CTX addition (100 ng/mL overnight). 24 h after infection, the cells were rinsed and media replaced with imaging buffer, as previously described (Tilley et al. [2010]), prior to imaging using a Leica DMI4000B inverted microscope with a Leica DFC365 FX 1.4-megapixel monochrome digital camera with cyan fluorescent protein (CFP) excitation and CFP and yellow fluorescent protein (YFP) emissions measured every 2 sec. Cells were pretreated for 5 min with buffer or antagonists then, following 30 sec of baseline reads, the cells were stimulated with isoproterenol. The entire field-of view at 20× magnification was used to capture changes in fluorescence resonance energy transfer (FRET) in the NRCF population and each treatment condition was performed independently at least three times. Quantification of the ICUE3 ratio was calculated as changes in CFP emission/YFP emission over time, normalized to baseline.
EC50 and Emax values were attained via nonlinear regression curve fitting of the DMR, ICUE3, or EGFR internalization responses using Prism 5.0 software (GraphPad Software Inc.; San Diego, CA). Statistical analyses were performed using a one-way analysis of variance (ANOVA) followed by a Newman–Keuls multiple comparisons test or a two-tailed unpaired t-test, as appropriate. A value of P < 0.05 was considered statistically significant.

A further assay concerns Flag-EGFR-mYFP. Kind of assay: EGFR internalization, on-cell western for loss of surface Flag-EGFR-mYFP in NRCF. The following applies: Fig. 7C, 60 min treatment. The assay is classed as cell-based, rat. As for the experimental part:
NRCF were seeded either in 35 mm glass-bottom dishes as described above or in clear-bottom black-walled 96-well plates (655090; Greiner Bio-One, Monroe, NC) at 3 × 10^4 cells/well and infected with Ad-Flag-EGFR-mYFP (constructed at Vector Biolabs, Philadelphia, PA) at an MOI of 200 for 24 h prior to stimulation with agonist as indicated. After 1 h, cells were fixed in 4% paraformaldehyde (163201145; Wako Chemicals, Richmond, VA) for 20 min, rinsed with phosphate-buffered saline (Corning/Cellgro, 21-030-CV) and on-cell western staining (nonpermeabolized) was performed using anti-Flag M2 antibody (1:1000, 3 h at RT, Sigma, F1804), IRDye® 800CW Conjugated Goat (polyclonal) Anti-mouse secondary antibody (1:1000, 1 h at RT, LI-COR, 926-32210) and DRAQ5 (1:5000, 1 h at RT, Cell Signaling Technology, #4084) following the LI-COR on-cell protocol. Flag and DRAQ5 signals were detected using Odyssey CLx infrared imaging system (LI-COR Biosciences, Lincoln, NE) and YFP signal was measured with a Tecan M1000 plate reader. Amount of EGFR internalization was calculated by normalizing the Flag signal to both the DRAQ5 (cell number control) and YFP (infection control) signals: Flag/DRAQ5/YFP. […] San Diego, CA). Statistical analyses were performed using a one-way analysis of variance (ANOVA) followed by a Newman–Keuls multiple comparisons test or a two-tailed unpaired t-test, as appropriate. […]

The next assay has as its system dynamin. Further details: method as in Kirchhausen et al. [2008]. The settings on record: known/reported IC50; ref Kirchhausen et al. [2008]; cited from earlier work.
The subject of another assay is EGFR in NRCF. Kind of assay: EGFR-dependent DMR response to EGF in NRCF. The assay is classed as cell-based, rat.
[2] abbreviates: antagonist 10 μmol/L, ISO 100 nmol/L.
Setting [3] is: βAR antagonist alone, positive-deflected DMR (inverse agonism).
Where [4] appears, read: Rattus norvegicus, Cardiac fibroblast, agonist + buffer, 3-day-old NRCF.
[5] abbreviates: agonist + buffer, 3-day-old NRCF.
Setting [6] is: agonist + cholera toxin (100 ng/mL).
The mark [7] stands for this setting: agonist + propranolol (1 μmol/L).

In the case of `CC(C)NCC(O)COc1cccc2ccccc12` (stereo not shown) [Propranolol, propranolol], the “effect on ISO-mediated DMR effect” value in assay [1] (setting [2]) is “very significantly reduced”. The “Emax (DMR)” value in assay [1] (setting [3]) came to 81.2 ± 2.5 pm. For the same compound, the “effect on ISO-induced FRET (cAMP generation)” value (“effect on ISO-induced FRET” below) with cAMP generation in NRCF is recorded as “significantly blocked”.

Take `Cc1ccc(OCC(O)C(C)NC(C)C)c2c1CCC2` (stereo not shown) [ICI 188,551, ICI 118,551]: the “effect on ISO-mediated DMR effect” value in assay [1] (setting [2]) is reported as “very significantly reduced”. For the same compound, in assay [1] (setting [3]), the “Emax (DMR)” value worked out at 117.3 ± 5.4 pm and the EC50 was found to be 192 ± 61.7 nM. Besides, the “effect on ISO-induced FRET” value with cAMP generation in NRCF is on record as “significantly blocked”.

Take `CC(CCc1ccc(O)cc1)NCCc1ccc(O)c(O)c1` (stereo not shown) [Dobutamine]: in assay [1] (Prop 1 μmol/L), the “DMR responses in presence of Prop” value is recorded as “completely blocked”. Besides, the results for the EC50 in assay [1] (setting [4]) and in assay [1] (setting [6]) were 134 ± 11.7 nM and 50 ± 16.8 nM, respectively. The “Emax (DMR)” value in assay [1] (setting [5]) was −217.1 ± 3.5 pm; in assay [1] (setting [6]), −86.0 ± 3.4 pm. In addition, in assay [1] (at micromolar concentrations), the “maximal DMR response, % of the ISO and Sal responses” value was around 75%.

For the compound `COc1cc2ncnc(Nc3ccc(F)c(Cl)c3)c2cc1OCCCN1CCOCC1` [Gef, gefitinib], in assay [1] (ISO 100 nmol/L, CTX 100 ng/mL overnight, Gef 1 μmol/L), the “ISO-induced DMR response after pretreatment, % of the buffer-pretreated ISO response” value is around 65%. The “reduction of the ISO DMR response” value in assay [1] (ISO 100 nmol/L, CTX 100 ng/mL overnight, Gef 1 μmol/L, Fig. 7F) is reported as around 35%.

With `CC(C)(C)NCC(O)c1ccc(O)c(CO)c1` (stereo not shown) [Salbutamol, salbutamol], the values for the EC50 in assay [1] (setting [4]) and in assay [1] (setting [6]) were 15.6 ± 0.8 nM and 30.1 ± 4.9 nM, respectively. Further, the entries for the “Emax (DMR)” value in assay [1] (setting [5]), in assay [1] (setting [6]) and in assay [1] (setting [7]) were −257.1 ± 1.8 pm, −122.4 ± 2.1 pm and −251.9 ± 6.3 pm, respectively.

Take `CC(C)NCC(O)c1ccc(O)c(O)c1` (stereo not shown) [Isoproterenol]: the “Emax (DMR)” value in assay [1] (8-day-old NRCF, Fig. 1D) is on record as −40 ± 5.3 pm; in assay [1] (setting [5]), −266.1 ± 8.2 pm; in assay [1] (setting [6]), −109.6 ± 6.4 pm; in assay [1] (setting [7]), −247.6 ± 4.3 pm. The “ISO DMR response, % of the response attained with 2.5 × 10^4 cells” value in assay [1] (ISO 100 nmol/L, 1 × 10^4 cells per well) is given as around 25%; in assay [1] (ISO 100 nmol/L, 1.5 × 10^4 cells per well) it was around 50%. Further, the concentration for a half-maximal effect (EC50) in assay [1] (setting [4]) is 15.4 ± 4.2 nM; in assay [1] (setting [7]), 809 ± 84.1 nM; in assay [1] (setting [6]) it was 30.1 ± 17.4 nM; in the assay on Flag-EGFR-mYFP, 17.1 ± 5.5 nM; with cAMP generation in NRCF (Rattus norvegicus, Fig. 5B), 7.4 ± 5.6 nM.

Consider `Cn1cc(C(F)(F)F)nc1-c1ccc(OCC(O)CNCCOc2ccc(O)c(C(N)=O)c2)cc1` (stereo not shown) [CGP 20712A], for which the “DMR response of antagonist alone” value in assay [1] (100 μmol/L, likely due to a toxic effect on the cells) is listed as “extreme positive DMR deflection”. The “effect on ISO-mediated DMR effect” value in assay [1] (setting [2]) was “very small, though significant, decrease”. Besides, the “effect on ISO-induced FRET” value in the assay on cAMP generation in NRCF is “partial blockade”.

Take `O=C(N/N=C/c1ccc(O)c(O)c1)c1cc2ccccc2cc1O` [Dyn, dynasore]: the “effect on ISO-mediated DMR effect” value in assay [1] (Dyn pretreatment 100 μmol/L, 30 min) was “enhanced”. In the assay with dynamin, the IC50 is 15000 nM.

In the case of epidermal growth factor [EGF], the EC50 is below 1 nM in the assay with EGFR in NRCF (Fig. S2D, read-out: EC50 (positive-deflected DMR)) and 0.45 ± 0.03 nM in the assay on EGFR in NRCF (printed in picture of Fig. S2D, read-out: EC50 (peak DMR)).

In the case of cholera toxin [CTX], in assay [1], the “ISO-induced DMR response after pretreatment, % of the buffer-pretreated ISO response” value is listed as around 35% and the “reduction of the ISO DMR response” value is listed as around 65%. The “effect on ISO-dependent cAMP generation” value with cAMP generation in NRCF is “substantially reduced”.

As to `COc1ccc(C2CNC(=O)C2)cc1OC1CCCC1` (stereo not shown) [Rol, rolipram], the “effect on ISO-mediated DMR response” value in assay [1] (Rol 10 nmol/L) is “significantly enhanced”. Also, the “effect on ISO-mediated ICUE3 response” value in the assay with cAMP generation in NRCF (Rol 10 nmol/L) is on record as “significantly enhanced”.
